System: beta-defensin 2 (human β-defensin 2, hBD-2)
Assay: beta-defensin 2 synthesis ELISA in cortisol-treated HaCaT cells
Type: cell-based
Design: change of beta-defensin 2 in skin cells: dose or concentration left out as unconfirmed
Settings: for enhancement efficacy (beta-defensin 2 synthesis): single treatment at 1 ppm
Method: First, HaCaT, which is a human epidermal cell of the outermost layer among skin cells, was cultured using Dulbecco's Modified Eagle's Media (DMEM; Gibco, USA) mixed with 10% fetal bovine serum (FBS; Gibco, USA) and 1% antibiotic antimycotic (Gibco, USA) in a 24-well plate under conditions of 37° C. and 5% CO2. […] […] After 24 hours, the cells were treated with curcumin, taurine, and acetyl hexapeptide-8 at experimental concentrations, and cultured for 24 hours. At this time, curcumin, taurine, and acetyl hexapeptide-8 were treated alone, and the concentration of curcumin was fixed at 0.1 ppm and 1 ppm, and then taurine and acetyl hexapeptide-8 were treated in combination of concentrations, and cultured for 24 hours. 24 hours after treatment with each sample, ELISA was performed to quantify the amount of beta-defensin 2 (human β-defensin 2, hBD-2) protein synthesis. ELISA was performed using the HUMAN BETA DEFENSIN 2 ELISA kit (ALPHA DIAGNOSTIC, USA) and using the cell culture medium according to the kit's manual, and the final protein amount was calculated by measuring absorbance at 400 nm. […] At this time, when the amount thereof increased compared to the decrease due to cortisol, it was interpreted that the synthesis of beta-defensin 2 was increased by the sample. In addition, the synergistic effect between respective active substances that enhance beta-defensin 2 which had been reduced by cortisol was predicted through the Colby formula, and when the actual measured value was greater than the predicted value, it was determined that there was the synergistic effect.

[1] = Table 4: each substance at 1 ppm, alone or three cotreated, Cortisol (5 μM) = 100
[2] = single treatment 0.01 ppm, 24 h, HaCaT, cortisol group = 100
[3] = single treatment 0.1 ppm, 24 h, HaCaT, cortisol group = 100
[4] = single treatment 1 ppm, 24 h, HaCaT, cortisol group = 100

Row | Compound | Production amount of beta-defensin 2 (%) [1] [%] | Production amount of beta-defensin 2 (%) [2] [%] | Production amount of beta-defensin 2 (%) [3] [%] | Production amount of beta-defensin 2 (%) [4] [%] | Production amount of beta-defensin 2 (%) (single treatment 5 ppm, 24 h, HaCaT, cortisol group = 100) | Production amount of beta-defensin 2 (%) (single treatment 10 ppm, 24 h, HaCaT, cortisol group = 100) | enhancement efficacy (beta-defensin 2 synthesis) | change of beta-defensin 2 in skin cells (HaCaT, cultured for 24 hours)
1 | NCCS(=O)(=O)O [Taurine, 2-aminoethanesulfonic acid] | 117.6 | 100.60 | 99.90 | 117.60 | 87.61 | 83.06 | confirmed | –
2 | C[C@]12CCC(=O)C=C1CC[C@@H]1[C@@H]2[C@@H](O)C[C@@]2(C)[C@H]1CC[C@]2(O)C(=O)CO [cortisol, hydrocortisone, reference compound] | – | – | – | – | – | – | – | significantly reduced
3 | COc1cc(/C=C/C(=O)CC(=O)/C=C/c2ccc(O)c(OC)c2)ccc1O [Curcumin, curcumin] | 106.82 | 96.65 | 97.92 | 106.82 | – | – | confirmed | –

Reference: patent US20240225973A1, “COSMETIC COMPOSITION FOR IMPROVING SENSITIVE SKIN” (LG HOUSEHOLD & HEALTH CARE LTD., priority 2023, published 2024)
